Patent US20260284042A1, “DOSING REGIMEN” (ViiV Healthcare UK (No.3) Limited, priority 2024, published 2026)
Read-outs that look alike come from different tables or passages of the source.

Columns and labels:
HIV-1 strains = conditions: integrase strand transfer inhibitor; antiviral activity against a broad range of HIV-1 strains; cited from earlier work
[1] = Cabotegravir population pharmacokinetic (PopPK) model, CAB 200 mg/mL IM injections; design: species or system human
Experimental: In a first set of simulations, a cabotegravir population pharmacokinetic (PopPK) model was built based on PK data following cabotegravir (CAB) 200 mg/mL intramuscular (IM) injections collected in 16 historical studies (Population pharmacokinetics of cabotegravir following administration of oral tablet and long-acting intramuscular injection in adult HIV-1-infected and uninfected subjects. Han K, Baker M, Lovern M, Paul P, Xiong Y, Patel P, Moore K P, Seal C S, Cutrell A G, D'Amico R D, Benn P D, Landovitz R J, Marzinke M A, Spreen W R, Ford S L. Br J Clin Pharmacol. 2022 October;88 (10): 4607-4622. doi: 10.1111/bcp. 15439. Epub 2022 Jul. 4. PMID: 35695476) and updated based on PK data from 19 studies: LAI116585, LAI117010, LAI117011, LAI117020, 201741, 201479, 201480, 205696, LAI116482 (LATTE), LAI115428, LAI116815, 200056 (LATTE-2), 201120 (ECLAIR), 201103 (HPTN077), 201584 (FLAIR), 201585 (ATLAS), 207966 (ATLAS-2M), 201738 (HPTN 083) and 201739 (HPTN 084). A total of 34,850 CAB plasma concentrations collected at various time points from 2,694 participants were used to build this PopPK model.

[2] = cited from earlier work

In the case of `C[C@H]1CO[C@@H]2Cn3cc(C(=O)NCc4ccc(F)cc4F)c(=O)c(O)c3C(=O)N12` [Cabotegravir, (3S, 11aR)-N-((2,4-difluorophenyl)methyl)-6-hydroxy-3-methyl-5,7-dioxo-2,3,5,7,11,11a-hexahydro (1,3) oxazolo (3,2-a)pyrido (1,2-d) pyrazine-8-carboxamide], the potency (HIV-1 strains) is listed as “subnanomolar”, the “Apparent central clearance (CL/F), higher in current smokers” value [1] is listed as 16.4% and the “KA2 versus BMI” value [1] is listed as “decreased with increasing BMI”. The “KA2 versus needle length” value [1] was “lower with longer needle length”, the “Long-acting intramuscular gluteal absorption rate constant (KA2), lower in people assigned female at birth than male at birth” value ([1]; CAB 200 mg/mL IM injections) was 46.5% and the “KA2, higher in study 201120 (ECLAIR) than other studies” value ([1]; after adjusting for all covariates) was 22.8%. For the same compound, the “KA2 versus split injections” value ([1]; people assigned female at birth) was “not associated with split injections”, the “KA2, higher if the injection was split” value ([1]; people assigned male at birth) was 50.8% and the “10th percentile of Ctau observed” value ([2]; Phase 3 study 201738 (HPTN 083), people assigned male at birth) was 1.05 µg/mL. For the same compound, the “10th percentile of Ctau observed” value ([2]; Phase 3 study 201739 (HPTN 084), people assigned female at birth) was 1.39 µg/mL.
